Legend:
Assay in all cases: relative viability (nuclei count vs DMSO), 5 days (fraction); higher = more cells survive
Halofuginone + Olaparib = compound: O=C(C[C@H]1NCCC[C@@H]1O)Cn1cnc2cc(Br)c(Cl)cc2c1=O (racemic) [Halofuginone] + O=C(c1cc(Cc2n[nH]c(=O)c3ccccc23)ccc1F)N1CCN(C(=O)C2CC2)CC1 [Olaparib] (partner 8 µM)
In short: (§1)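 Lung cancer cell lines, seeded in 1536-well plates, were treated the following day by pin tool with a single drug or with five library-drug doses (not always all listed) in √10 steps on top of a fixed anchor-drug dose. Cells were fixed and nuclei stained in one step after 5 days, and nuclei were counted. Relative viability is the nuclei count for treated wells divided by that for vehicle wells, reported as medians of duplicate plates.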

[1] = compound: O=C(C[C@H]1NCCC[C@@H]1O)Cn1cnc2cc(Br)c(Cl)cc2c1=O (racemic) [Halofuginone] + C[C@]1(O)C[C@@H](c2nc(-c3ccc4ccc(-c5ccccc5)nc4c3)c3c(N)nccn32)C1 [Linsitinib] (partner 1 µM)
In short: as §1

Cediranib + Pictilisib = compound: COc1cc2c(Oc3ccc4[nH]c(C)cc4c3F)ncnc2cc1OCCCN1CCCC1 [Cediranib] + CS(=O)(=O)N1CCN(Cc2cc3nc(-c4cccc5[nH]ncc45)nc(N4CCOCC4)c3s2)CC1 [Pictilisib] (partner 1 µM)
In short: as §1

Cediranib + Crizotinib = compound: COc1cc2c(Oc3ccc4[nH]c(C)cc4c3F)ncnc2cc1OCCCN1CCCC1 [Cediranib] + C[C@@H](Oc1cc(-c2cnn(C3CCNCC3)c2)cnc1N)c1c(Cl)ccc(F)c1Cl [Crizotinib] (partner 1 µM)
In short: as §1

Row | Cell Line | relative viability (Halofuginone + Olaparib; first compound 0.001 µM) | relative viability (Halofuginone + Olaparib; first compound 0.003162 µM) | relative viability (Halofuginone + Olaparib; first compound 0.01 µM) | relative viability (Halofuginone + Olaparib; first compound 0.03162 µM) | relative viability (Halofuginone + Olaparib; first compound 0.1 µM) | relative viability ([1]; first compound 0.001 µM) | relative viability ([1]; first compound 0.003162 µM) | relative viability ([1]; first compound 0.01 µM) | relative viability ([1]; first compound 0.03162 µM) | relative viability ([1]; first compound 0.1 µM) | relative viability (Cediranib + Pictilisib; first compound 0.04 µM) | relative viability (Cediranib + Pictilisib; first compound 0.1265 µM) | relative viability (Cediranib + Pictilisib; first compound 0.4 µM) | relative viability (Cediranib + Pictilisib; first compound 1.265 µM) | relative viability (Cediranib + Pictilisib; first compound 4 µM) | relative viability (Cediranib + Crizotinib; first compound 0.04 µM) | relative viability (Cediranib + Crizotinib; first compound 0.1265 µM) | relative viability (Cediranib + Crizotinib; first compound 0.4 µM) | relative viability (Cediranib + Crizotinib; first compound 1.265 µM) | relative viability (Cediranib + Crizotinib; first compound 4 µM)
1 | 201T | 0.851 | 0.906 | 0.853 | 0.827 | 0.83 | 1.07 | 1.08 | 1.03 | 0.967 | 0.724 | 0.725 | 0.699 | 0.639 | 0.632 | 0.7 | 1.05 | 1.18 | 0.989 | 1.01 | 1.01
2 | LC-2-ad | 0.675 | 0.697 | 0.692 | 0.678 | 0.669 | 0.843 | 0.796 | 0.763 | 0.818 | 0.264 | 0.655 | 0.567 | 0.411 | 0.395 | 0.201 | 0.462 | 0.425 | 0.366 | 0.474 | 0.419
3 | NCI-H596 | 0.756 | 0.737 | 0.655 | 0.752 | 0.549 | 1.13 | 1.04 | 1.07 | 1.12 | 0.732 | 0.458 | 0.493 | 0.348 | 0.37 | 0.241 | 0.934 | 1.09 | 0.988 | 0.954 | 1.09
4 | NCI-H1437 | 0.649 | 0.653 | 0.619 | 0.616 | 0.456 | 1.05 | 1.13 | 0.988 | 0.828 | 0.208 | 0.484 | 0.413 | 0.442 | 0.228 | 0.499 | 0.966 | 0.87 | 0.823 | 0.892 | 0.879
5 | NCI-H727 | 0.79 | 0.683 | 0.787 | 0.727 | 0.518 | 0.324 | 0.427 | 0.415 | 0.243 | 0.132 | 0.515 | 0.169 | 0.289 | 0.325 | 0.3 | 0.927 | 0.758 | 0.876 | 0.671 | 0.736
6 | PC-3 [JPC-3] | 1.19 | 1.12 | 1.15 | 1.15 | 0.948 | 0.981 | 0.987 | 0.911 | 1.01 | 0.941 | 0.659 | 0.905 | 0.708 | 0.671 | 0.768 | 1.05 | 1.04 | 1.01 | 1.02 | 0.857
7 | SW 1573 | 0.496 | 0.422 | 0.526 | 0.232 | 0.138 | 0.902 | 0.796 | 0.704 | 0.683 | 0.35 | 0.544 | 0.486 | 0.428 | 0.474 | 0.486 | 0.833 | 0.764 | 0.726 | 0.717 | 0.889
8 | NCI-H2228 | 0.669 | 0.627 | 0.461 | 0.184 | 0.124 | 0.589 | 0.926 | 0.69 | 0.394 | 0.199 | 0.522 | 0.504 | 0.459 | 0.288 | 0.557 | 0.54 | 0.562 | 0.545 | 0.419 | 0.327
